{"source": "patent EP0878193A1", "about": "“REMEDIES FOR HERPESVIRUS INFECTION CAUSED BY HERPESVIRUS AND PREVENTIVES FOR RECURRENCE OF THE INFECTION BOTH CONTAINING TRITERPENE DERIVATIVES AS THE ACTIVE INGREDIENT” (Showa Shell Sekiyu K.K., priority 1996, dated 1997)", "key": {"[1]": {"test_system": "TK^-", "assay": "plaque formation test (antiviral activity, CPE as index) on Vero cells", "type": "cell-based, TK deficiency herpes simplex virus type 1 (strain B 2006)", "settings": "Human alphaherpesvirus 1, Vero, read-out: EC50 (µg/mℓ) (average ± standard deviation)", "excerpt": "In order to examine antiviral activity, herpes simplex virus type 1 (strain 7401 H) (referred sometimes to as \"HSV-1\" hereinafter), TK deficiency herpes simplex virus type 1 (strain B 2006) (referred sometimes to as \"TK^-\" hereinafter), phosphono acetic acid (referred to as \"PAA\" hereinafter) resistant herpes simplex virus type 1 (PAA resistant strain derived from 7401 H) (referred sometimes to as \"AP^r1\" hereinafter) and herpes simplex virus type 2 (strain Ito 1262) (referred sometimes to as \"HSV-2\" hereinafter) were used as viruses. […]\nThat is, the above-described virus solution was diluted to a concentration of 100 plaques/0.2 mℓ, the thus diluted virus solution (0.2 mℓ) was inoculated into Vero cells which have been cultured into monolayer in a plastic dish of 60 mm in diameter, and the mixture was incubated at 37°C for 1 hour to effect adsorption of viruses to the Vero cells. After the adsorption, 2% fetal bovine serum-added MEM medium (5 mℓ) containing each drug solution to be measured having varied drug concentration and 0.8% methyl cellulose was overlaid on the just described virus-adsorbed monolayer Vero cells which were subsequently cultured at 37°C for 2 to 5 days to effect plaque formation. […] The number of plaques was counted under a stereoscopic microscope. […]"}, "[2]": {"assay": "toxicity test in non-infected mice", "type": "in vivo", "experimental": "Next, in order to examine toxicity of moronic acid, a toxicity test was carried out by administering control (water only) or 1 mg, 5 mg or 10 mg per kg mouse body weight of 3-oxo-olean-18-en-28-oic acid (moronic acid) to mice which have not been infected with viruses. Mice having a weight of 18 to 21 g/animal just before the commencement of the test were used in five animals per group. None of the mice died before completion of the test. 3-Oxo-olean-18-en-28-oic acid (moronic acid) was orally administered every day and three times a day."}, "[3]": {"test_system": "AP^r1", "assay": "viral DNA synthesis, slot-blot hybridization with radiation-labeled probe in Vero cells", "type": "cell-based", "settings": "0, 5, 10 or 20 µg/mℓ, even at 20 µg/mℓ, Fig. 2", "experimental": "Finally, in order to examine effects of moronic acid on the viral synthesis ability, the amount of virus particles in cultured cells was measured by the slot-blot hybridization described in J. Traditional Med., 12, 187 - 194 (1995). Using a radiation-labeled probe, viral DNA synthesis ability of herpesvirus strains HSV-1 and AP^r1 was measured just after adsorption of the viruses to animal cells (Vero cells) or when concentration of 3-oxo-olean-18-en-28-oic acid (moronic acid) was changed (0, 5, 10 or 20 µg/mℓ), with the results shown as a chart in Fig. 2 (photograph).\nIn Fig. 2, rough amounts of each herpesvirus are shown by the strength of black parts. For the sake of comparison, DNA copy number of a virus TK^- is shown on the right-side column as a reference strength."}, "[4]": {"test_system": "HSV-1", "assay": "amount of virus in skin and brain of mice infected with HSV-1 (plaque assay of tissue homogenates)", "type": "in vivo", "settings": "for Skin/brain (ratio): ratio of the percentages of skin and brain", "experimental": "Next, effects of 3-oxo-olean-18-en-28-oic acid (moronic acid) against a virus in the animal body were examined by infecting skin cell tissues of mice with the viral strain HSV-1 and measuring the amount of the virus particles remained in the affected part of the skin and those migrated from the skin into intracerebral nerve cells 2, 3, 4 and 6 days after the infection, when a control (water only) or a varied amount of 3-oxo-olean-18-en-28-oic acid (moronic acid) was administered to the mice. In each of the experiments 1 and 2, three mice were used in one group and the average number of virus particles obtained from each mouse was used as the amount of virus. The amount of virus was measured by cutting off an area of 1 cm^2 around the affected part in the case of the skin or using the entire brain portion in the case of the brain. Each of the tissue samples was mixed with 2 mℓ of physiological saline and homogenated, the supernatant fluid obtained therefrom was used as a virus test solution to carry out a plaque assay (plaque measuring method) using cultured Vero cells, and the number of plaques thus counted was used as the amount of virus. The skin/brain ratio is a value calculated as the ratio of respective percentages obtained from the skin and the brain.\nWith regard to the numeral in ( ) such as (100%), (65.4%) or the like shown in the item of the amount of virus, the amount of virus in the control was defined as 100% and shown as (100%), the ratio of residual virus particles when 10 mg/kg of moronic acid was administered was 65.4% so that it was shown as (65.4%), and other numerals in ( ) under respective data were shown in the same manner."}, "[5]": {"settings": "Exp. 1, 1 mg/kg orally every day, three times a day, non-infected mice, five per group"}, "[6]": {"settings": "Exp. 1, 2 days after infection, 10 mg/kg"}, "[7]": {"settings": "Exp. 1, 4 days after infection, 1 mg/kg"}, "[8]": {"settings": "Exp. 1, 4 days after infection, 10 mg/kg"}, "[9]": {"settings": "Exp. 1, 6 days after infection, 1 mg/kg"}, "[10]": {"settings": "Exp. 1, 6 days after infection, 10 mg/kg"}, "[11]": {"settings": "Exp. 2, 3 days after infection, 1 mg/kg"}, "[12]": {"settings": "Exp. 2, 3 days after infection, 5 mg/kg"}, "[13]": {"settings": "Exp. 2, 6 days after infection, 1 mg/kg"}, "[14]": {"settings": "Exp. 2, 6 days after infection, 5 mg/kg"}}}
{"smiles": "CC1(C)C=C2[C@H]3CC[C@@H]4[C@@]5(C)CCC(=O)C(C)(C)[C@@H]5CC[C@@]4(C)[C@]3(C)CC[C@@]2(C(=O)O)CC1", "note": "[Moronic acid, 3-oxo-olean-18-en-28-oic acid]", "values": [{"measurement": "EC50", "setting": "[1]", "result": "2 ± 0.4", "unit": "µg/mL"}, {"measurement": "Death rate", "setting": "[2]; Exp. 1, 1 mg/kg orally every day, three times a day, non-infected mice", "result": "0/5"}, {"measurement": "(Average body weight ± standard deviation) Administration period 7 days", "setting": "[2]; [5]", "result": "19.8 ± 1.4"}, {"measurement": "(Average body weight ± standard deviation) Administration period 36 days", "setting": "[2]; [5]", "result": "22.6 ± 0.8"}, {"measurement": "Death rate", "setting": "[2]; Exp. 1, 5 mg/kg orally every day, three times a day, non-infected mice", "result": "0/5"}, {"measurement": "Death rate", "setting": "[2]; Exp. 2, 10 mg/kg orally every day, three times a day, non-infected mice", "result": "0/5"}, {"measurement": "deaths of mice", "setting": "[2]; even at the maximum concentration of 10 mg/kg, after the lapse of time of 25 days", "result": "none of the five mice died"}, {"measurement": "(Average body weight ± standard deviation) Administration period 7 days", "setting": "[2]; mouse, in vivo, po, 5 mg/kg", "result": "19.9 ± 1.4"}, {"measurement": "(Average body weight ± standard deviation) Administration period 36 days", "setting": "[2]; mouse, in vivo, po, 5 mg/kg", "result": "21.0 ± 0.8"}, {"measurement": "(Average body weight ± standard deviation) Administration period 7 days", "setting": "[2]; mouse, in vivo, po, 10 mg/kg", "result": "20.1 ± 1.2"}, {"measurement": "(Average body weight ± standard deviation) Administration period 21 days", "setting": "[2]; mouse, in vivo, po, 10 mg/kg", "result": "20.4 ± 1.0"}, {"measurement": "effect to inhibit virus DNA synthesis", "setting": "[3]", "result": "not found"}, {"measurement": "Amount of virus (average ± standard deviation, PFU/organ) Skin", "setting": "[4]; [6]", "result": "4.9 ± 0.0 (log10 PFU)/cm^2"}, {"measurement": "Amount of virus Skin, relative to control defined as 100%", "setting": "[4]; [6]", "result": 91.2, "unit": "%"}, {"measurement": "Amount of virus (average ± standard deviation, PFU/organ) Brain", "setting": "[4]; [7]", "result": "< 2.4 ± 0.0 (log10 PFU)/total"}, {"measurement": "Amount of virus (average ± standard deviation, PFU/organ) Skin", "setting": "[4]; [7]", "result": "6.1 ± 0.4 (log10 PFU)/cm^2"}, {"measurement": "Amount of virus Brain, relative to control defined as 100%", "setting": "[4]; [7]", "result": "< 83.9", "unit": "%"}, {"measurement": "Amount of virus Skin, relative to control defined as 100%", "setting": "[4]; [7]", "result": 93.5, "unit": "%"}, {"measurement": "Skin/brain (ratio)", "setting": "[4]; [7]", "result": ">1.12"}, {"measurement": "Amount of virus (average ± standard deviation, PFU/organ) Brain", "setting": "[4]; [8]", "result": "< 2.40 ± 0.0 (log10 PFU)/total"}, {"measurement": "Amount of virus (average ± standard deviation, PFU/organ) Skin", "setting": "[4]; [8]", "result": "6.3 ± 0.3 (log10 PFU)/cm^2"}, {"measurement": "Amount of virus Brain, relative to control defined as 100%", "setting": "[4]; [8]", "result": "< 83.9", "unit": "%"}, {"measurement": "Amount of virus Skin, relative to control defined as 100%", "setting": "[4]; [8]", "result": 96.3, "unit": "%"}, {"measurement": "Skin/brain (ratio)", "setting": "[4]; [8]", "result": ">1.15"}, {"measurement": "Amount of virus (average ± standard deviation, PFU/organ) Brain", "setting": "[4]; [9]", "result": "3.5 ± 0.4 (log10 PFU)/total"}, {"measurement": "Amount of virus (average ± standard deviation, PFU/organ) Skin", "setting": "[4]; [9]", "result": "6.1 ± 0.2 (log10 PFU)/cm^2"}, {"measurement": "Amount of virus Brain, relative to control defined as 100%", "setting": "[4]; [9]", "result": 85.6, "unit": "%"}, {"measurement": "Amount of virus Skin, relative to control defined as 100%", "setting": "[4]; [9]", "result": 95.3, "unit": "%"}, {"measurement": "Skin/brain (ratio)", "setting": "[4]; [9]", "result": 1.12}, {"measurement": "Amount of virus (average ± standard deviation, PFU/organ) Brain", "setting": "[4]; [10]", "result": "2.3 ± 0.3 (log10 PFU)/total"}, {"measurement": "Amount of virus (average ± standard deviation, PFU/organ) Skin", "setting": "[4]; [10]", "result": "6.0 ± 0.1 (log10 PFU)/cm^2"}, {"measurement": "Amount of virus Brain, relative to control defined as 100%", "setting": "[4]; [10]", "result": 57.0, "unit": "%"}, {"measurement": "Amount of virus Skin, relative to control defined as 100%", "setting": "[4]; [10]", "result": 94.2, "unit": "%"}, {"measurement": "Skin/brain (ratio)", "setting": "[4]; [10]", "result": 1.674}, {"measurement": "Amount of virus (average ± standard deviation, PFU/organ) Skin", "setting": "[4]; [11]", "result": "5.5 ± 0.4 (log10 PFU)/cm^2"}, {"measurement": "Amount of virus Skin, relative to control defined as 100%", "setting": "[4]; [11]", "result": 98.2, "unit": "%"}, {"measurement": "Amount of virus (average ± standard deviation, PFU/organ) Skin", "setting": "[4]; [12]", "result": "5.1 ± 0.4 (log10 PFU)/cm^2"}, {"measurement": "Amount of virus Skin, relative to control defined as 100%", "setting": "[4]; [12]", "result": 91.5, "unit": "%"}, {"measurement": "Amount of virus (average ± standard deviation, PFU/organ) Brain", "setting": "[4]; [13]", "result": "3.0 ± 0.6 (log10 PFU)/total"}, {"measurement": "Amount of virus (average ± standard deviation, PFU/organ) Skin", "setting": "[4]; [13]", "result": "4.8 ± 0.7 (log10 PFU)/cm^2"}, {"measurement": "Amount of virus Brain, relative to control defined as 100%", "setting": "[4]; [13]", "result": 80.7, "unit": "%"}, {"measurement": "Amount of virus Skin, relative to control defined as 100%", "setting": "[4]; [13]", "result": 93.9, "unit": "%"}, {"measurement": "Skin/brain (ratio)", "setting": "[4]; [13]", "result": 1.16}, {"measurement": "Amount of virus (average ± standard deviation, PFU/organ) Brain", "setting": "[4]; [14]", "result": "2.7 ± 0.3 (log10 PFU)/total"}, {"measurement": "Amount of virus (average ± standard deviation, PFU/organ) Skin", "setting": "[4]; [14]", "result": "5.6 ± 0.2 (log10 PFU)/cm^2"}, {"measurement": "Amount of virus Brain, relative to control defined as 100%", "setting": "[4]; [14]", "result": 72.2, "unit": "%"}, {"measurement": "Amount of virus Skin, relative to control defined as 100%", "setting": "[4]; [14]", "result": 109.0, "unit": "%"}, {"measurement": "Skin/brain (ratio)", "setting": "[4]; [14]", "result": 31.9}]}
